# Patent publication US12589082B2, “Compositions comprising thymoquinone and additional biologically active compounds” (N.S. OILS LTD., priority 2019, dated 2026)
# Tested on: NO production by LPS-stimulated cultured murine macrophages
# Experiment: Inhibition of NO production (Griess nitrite assay) in LPS-stimulated cultured murine macrophages
# Format: cell-based, murine (ICR mice peritoneal macrophages; RAW264.7)
# Details: for inhibition at 0.269 µg/mL: beta-carotene alone at 0.269 μg/ml
# Method: The aim of this study was to investigate the effect of different combinations of NS oil and carotenoids on the in vitro production of the inflammatory mediator NO by LPS-stimulated cultured murine macrophages.
# Macrophage isolation and cell culture—Peritoneal macrophages were collected from the peritoneal cavity of 6-8 week old male ICR mice (Harlan, Israel) that had been given an intraperitoneal injection of 1.5 ml of thioglycollate broth (4%) 4 days before harvest. […] Peritoneal macrophages and murine macrophage cell line RAW264.7 were cultured RPMI 1640 medium containing 10% FCS, 2 mM L-glutamine; 100 U/ml penicillin; 100 μg/ml streptomycin (Beit-Haemek, Israel) in 96-well plates (1×10^6 cells/well) at 37° C. in 5% CO2 atmosphere. Cells were stimulated with LPS (0.1-1 μg/ml) in the presence or absence of NS oil acid and/or one or more of the following carotenoids: astaxanthin, lutein and beta-Carotene. The following stock solutions of each active agent were used to prepare the various dilutions tested: • Cold-pressed NS oil containing 3% thymoquinone and 1.7% free fatty acids (N.S. Oils, Israel). • Lutein 20% (Lycored Ltd., Israel) • Beta-carotene 30% in vegetable oil (Lycored Ltd., Israel) • Astaxanthin oleoresin extracted from microalgae, containing 10% astaxanthin (Algatech, Israel). • Lycopene (present at a concentration of 6.35% in the commercially-available product known as Lyc-O-Mato, obtained from Lycored Ltd., Israel).
# The carotenoids were dissolved in DMSO (to a final concentration of 5 mM). The mixture was vortexed and incubated in a water bath at 37° C. (with shaking) for 10 min and then sonicated in a sonicator bath three times for 15 seconds each time. Using this stock solution, the desired concentrations were prepared by the addition of appropriate volumes thereof to warm culture medium.
# Appropriate volumes of DMSO (0.1-0.2%) were added to the control tubes and the percent inhibition of NO production in each test tube was calculated in relation to its control.
# NO production assay—NO levels in supernatants of cell cultures were determined by assaying nitrite levels using Griess reagent and sodium nitrite as a standard as described in Green, L. C., Wagner, D. A., Glogowski, J., Skipper, P. L., Wishnok, J. S., and Tannenbaum, S. R. (1982) Anal Biochem. 126: 131-138. […]
smiles,measurement,setting,value
"C=C(C)[C@@H]1CCC(C)=C[C@H]1c1c(O)cc(CCCCC)cc1O [CBD, cannabidiol]",inhibition of NO production,"Example 2 first study, FIG. 8, CBD alone at 0.0075 μg/ml",did not results in a detectable level of NO inhibition
same,inhibition of NO production,"Example 2 second study, FIG. 9 upper, CBD alone at 0.005 μg/ml",measurable inhibition of NO production
same,inhibition at 0.01 µg/mL,"Mus musculus, Macrophage, read-out: inhibition of NO production",< 10%
CC1=C(/C=C/C(C)=C/C=C/C(C)=C/C=C/C=C(C)/C=C/C=C(C)/C=C/C2=C(C)C(=O)[C@@H](O)CC2(C)C)C(C)(C)C[C@H](O)C1=O [astaxanthin],inhibition of NO production,"Example 1 first study, FIG. 1, astaxanthin alone at 0.298 and 0.596 μg/ml, % of maximal inhibition",20-25%
same,inhibition at 0.298 µg/mL,"Mus musculus, Macrophage, Example 4, text summary, astaxanthin only, 0.298 μg/ml",~20%
same,inhibition at 0.298 µg/mL,"Mus musculus, Macrophage, Example 4 comparative, column 0.0015 μg/ml TQ of high-FFA NS oil dilution, astaxanthin 0.298 μg/ml, agent alone or combined as labelled",19.1%
same,inhibition at 0.298 µg/mL,"Mus musculus, Macrophage, Example 4 comparative, column 0.0030 μg/ml TQ of high-FFA NS oil dilution, astaxanthin 0.298 μg/ml, agent alone or combined as labelled",21.3%
same,inhibition at 0.298 µg/mL,"Mus musculus, Macrophage, second study, FIG. 4, astaxanthin alone at 0.298 μg/ml",19.1%
CC1=C(/C=C/C(C)=C/C=C/C(C)=C/C=C/C=C(C)/C=C/C=C(C)/C=C/C2=C(C)CCCC2(C)C)C(C)(C)CCC1 [beta-carotene],inhibition at 0.269 µg/mL,"Mus musculus, Macrophage, first study, FIG. 3",< 10%
same,inhibition at 0.538 µg/mL,"Mus musculus, Macrophage, first study, FIG. 3, beta-carotene alone at 0.538 μg/ml",< 20%
same,inhibition at 0.269 µg/mL,"Mus musculus, Macrophage, second study, FIG. 6",3.89%
CC1=C[C@H](O)CC(C)(C)[C@H]1/C=C/C(C)=C/C=C/C(C)=C/C=C/C=C(C)/C=C/C=C(C)/C=C/C1=C(C)C[C@@H](O)CC1(C)C [lutein],inhibition at 0.284 µg/mL,"Mus musculus, Macrophage, second study, FIG. 5, lutein alone at 0.284 μg/ml",6.96%
same,inhibition of NO production,"first study, FIG. 2, lutein alone at 0.284 μg/ml",did not cause any measurable degree of NO inhibition
CC(C)=CCC/C(C)=C/C=C/C(C)=C/C=C/C(C)=C/C=C/C=C(C)/C=C/C=C(C)/C=C/C=C(\C)CCC=C(C)C [lycopene],inhibition at 0.35 µg/mL,"Mus musculus, Macrophage, second study, FIG. 7, lycopene alone at 0.35 μg/ml",13.5%
